The text below walks through data of patent US20230312481A1, “SUBSTITUTED (PHTHALAZIN-1-YLMETHYL)UREAS, SUBSTITUTED N-(PHTHALAZIN-1-YLMETHYL)AMIDES, AND ANALOGUES THEREOF” (priority 2020, published 2023).

By EC50 is commonly meant the concentration that produces a half-maximal response.

One experiment relates to HBV rcDNA in HepDE19 cells. Description: HepDE19 assay with bDNA quantitation of HBV rcDNA. Conditions: HepDE19 cells, 7 day incubation, rcDNA measured by Quantigene 2.0 bDNA assay; top concentration 25 µM; read-out: DE-19bDNA EC50. Type of experiment: cell-based, hepatitis B virus. How it is done:
HepDE19 Assay With bDNA Quantitation of HBV rcDNA
HepDE19 (50,000 cells/well) were plated in 96-well collagen-coated tissue-culture treated microtiter plates in DMEM/F12 medium supplemented with 10% fetal bovine serum, 1% penicillin-streptomycin and 1 µg/mL tetracycline and incubated in a humidified incubator at 37° C. and 5% CO2 overnight. Next day, the cells were switched to fresh medium without tetracycline and incubated for 4 hours at 37° C. and 5% CO2. […] The final DMSO concentration in the assay was 0.5%. The plates were incubated for 7 days in a humidified incubator at 37° C. and 5% CO2. Following a 7 day-incubation, the level of rcDNA present in the inhibitor-treated wells was measured using a Quantigene 2.0 bDNA assay kit (Affymetrix, Santa Clara, CA) with HBV specific custom probe set and manufacturers instructions. Concurrently, the effect of compounds on cell viability was assessed using replicate plates, plated at a density of 5,000 cells/well and incubated for 4 days, to determine the ATP content as a measure of cell viability using the cell-titer glo reagent (CTG; Promega Corporation, Madison, WI) as per manufacturer’s instructions.
Representative compounds of the disclosure were tested for their abilities to inhibit formation of relaxed circular DNA (rcDNA) in a HepDE19 assay, as described elsewhere herein.
On to `CC(c1n[nH]c(=O)c2cc(F)c(F)cc12)N(C)C(=O)c1cc(F)c(C(F)F)c(F)c1` (single isomer, unassigned) [Compound 109, N-(1-(6,7-difluoro-4-oxo-3,4-dihydrophthalazin-1-yl)ethyl)-4-(difluoromethyl)-3,5-difluoro-N-methylbenzamide], for which the EC50 came to 110 nM.
Turning to `CC(c1n[nH]c(=O)c2ccccc12)N(C)C(=O)Nc1ccc(F)c(Cl)c1` (single isomer, unassigned) [Compound 4, 3-(3-chloro-4-fluoro-phenyl)-1-methyl-1-[1-(4-oxo-3H-phthalazin-1-yl)ethyl]urea], the EC50 was 200 nM.
On the same count and under the same terms, the figure for `CC(c1n[nH]c(=O)c2ccccc12)N(C)C(=O)Nc1ccc(F)c(Cl)c1` (single isomer, unassigned) [Compound 3, 3-(3-chloro-4-fluoro-phenyl)-1-methyl-1-[1-(4-oxo-3H-phthalazin-1-yl)ethyl]urea] is 14000 nM; for `CC(c1n[nH]c(=O)c2cc(F)c(F)cc12)N(C)C(=O)c1ccc2c(ccn2C)c1` (single isomer, unassigned) [Compound 107, N-(1-(6,7-difluoro-4-oxo-3,4-dihydrophthalazin-1-yl)ethyl)-N,1-dimethyl-1H-indole-5-carboxamide] it is 110 nM.
With `CC(c1n[nH]c(=O)c2cc(F)c(F)cc12)N(C)C(=O)c1ccc2ncsc2c1` (single isomer, unassigned) [Compound 87, N-(1-(6,7-difluoro-4-oxo-3,4-dihydrophthalazin-l-yl)ethyl)-N-methylbenzo[d]thiazole-6-carboxamide], the EC50 was determined as 5570 nM.
As for `CC(c1n[nH]c(=O)c2cc(F)c(F)cc12)N(C)C(=O)c1ccc2ocnc2c1` (single isomer, unassigned) [Compound 89, N-(1-(6,7-difluoro-4-oxo-3,4-dihydrophthalazin-1-yl)ethyl)-N-methylbenzo[d]oxazole-5-carboxamide], the EC50 worked out at 2420 nM.
With `CC(c1n[nH]c(=O)c2cc(F)c(F)cc12)N(C)C(=O)c1cnc(C(F)(F)F)c(Cl)c1` (single isomer, unassigned) [Compound 93, 5-chloro-N-(1-(6,7-difluoro-4-oxo-3,4-dihydrophthalazin-1-yl)ethyl)-N-methyl-6-(trifluoromethyl)nicotinamide], the EC50 worked out at 1660 nM.
Still for that read-out and setting: the figure for `CC(c1n[nH]c(=O)c2cc(F)c(F)cc12)N(C)C(=O)c1ccc2c(c1)CCC2` (single isomer, unassigned) [Compound 83, N-(1-(6,7-difluoro-4-oxo-3,4-dihydrophthalazin-1-yl)ethyl)-N-methyl-2,3-dihydro-1H-indene-5-carboxamide] is 80 nM.
Still for that read-out and setting: to `CC(C)CN(C(=O)Nc1ccc(F)c(Cl)c1)C(C)c1n[nH]c(=O)c2ccccc12` (single isomer, unassigned) [Compound 6, 3-(3-chloro-4-fluoro-phenyl)-1-isobutyl-1-[1-(4-oxo-3H-phthalazin-1-yl)ethyl]urea] belongs 1700 nM; to `CC(C)CN(C(=O)Nc1ccc(F)cc1)C(C)c1n[nH]c(=O)c2cc(F)ccc12` (single isomer, unassigned) [Compound 21, 1-(1-(6-fluoro-4-oxo-3,4-dihydrophthalazin-1-yl)ethyl)-3-(4-fluorophenyl)-1-isobutylurea], 2400 nM.

The same experiment, now with this note: Hepatitis B virus, HepDE19, 168 h, HepDE19 cells, 7 day incubation, rcDNA measured by Quantigene 2.0 bDNA assay; top concentration 25 µM; read-out: DE-19bDNA EC50.
For the molecule `CC(c1n[nH]c(=O)c2cc(F)c(F)cc12)N(C)C(=O)Nc1ccc(F)c(C(F)F)c1` (racemic) [Compound 73, 1-(1-(6,7-difluoro-4-oxo-3,4-dihydrophthalazin-1-yl)ethyl)-3-(3-(difluoromethyl)-4-fluorophenyl)-1-methylurea], the EC50 was determined as 20 nM.
`CC(c1n[nH]c(=O)c2cc(F)c(F)cc12)N(C)C(=O)c1ccc(F)c(C(F)F)c1` (racemic) [Compound 72, N-(1-(6,7-difluoro-4-oxo-3,4-dihydrophthalazin-1-yl)ethyl)-3-(difluoromethyl)-4-fluoro-N-methylbenzamide]: the EC50 amounted to 340 nM.
In the case of `CC(c1n[nH]c(=O)c2c(F)cccc12)N(C)C(=O)Nc1ccc(F)c(Cl)c1` (centres unmarked) [Compound 44, 3-(3-chloro-4-fluorophenyl)-1-(1-(5-fluoro-4-oxo-3,4-dihydrophthalazin-1-yl)ethyl)-1-methylurea], the EC50 was 290 nM.
Still for that read-out and setting: to `CC(C)CN(C(=O)Nc1ccc(F)cc1)C(C)c1n[nH]c(=O)c2ccccc12` (racemic) [Compound 19, 3-(4-fluorophenyl)-1-isobutyl-1-(1-(4-oxo-3,4-dihydrophthalazin-1-yl)ethyl)urea] belongs 48 nM.
With `CC(c1n[nH]c(=O)c2cc(F)c(F)cc12)N(C)C(=O)c1ccc(C(F)(F)F)cc1` (racemic) [Compound 66, N-(1-(6,7-difluoro-4-oxo-3,4-dihydrophthalazin-1-yl)ethyl)-N-methyl-4-(trifluoromethyl)benzamide], the EC50 stood at 100 nM.
The same measure, in the same setting: the figure for `CC(C)CN(C(=O)Nc1ccc(F)c(Cl)c1)C(C)c1n[nH]c(=O)c2cc(Cl)ccc12` (racemic) [Compound 10, 3-(3-chloro-4-fluorophenyl)-1-(1-(6-chloro-4-oxo-3,4-dihydrophthalazin-1-yl)ethyl)-1-isobutylurea] is 20 nM; for `CC(c1nn(C)c(=O)c2cc(F)c(F)cc12)N(CCCO)C(=O)Nc1ccc(F)cc1` (racemic) [Compound 26, 1-(1-(6,7-difluoro-3-methyl-4-oxo-3,4-dihydrophthalazin-1-yl)ethyl)-3-(4-fluorophenyl)-1-(3-hydroxypropyl)urea] it is 31 nM; for `CC(c1n[nH]c(=O)c2cc(F)ccc12)N(C)C(=O)Nc1ccc(F)cc1` (racemic) [Compound 18, 1-(1-(6-fluoro-4-oxo-3,4-dihydrophthalazin-1-yl)ethyl)-3-(4-fluorophenyl)-1-methylurea] it is 500 nM.
Same read-out and setting: the figure for `CC(c1n[nH]c(=O)c2cc(F)c(F)cc12)N(C)C(=O)c1ccc(C(F)(F)F)c(F)c1` (racemic) [Compound 62, N-(1-(6,7-difluoro-4-oxo-3,4-dihydrophthalazin-1-yl)ethyl)-3-fluoro-N-methyl-4-(trifluoromethyl)benzamide] is 100 nM.
Still for that read-out and setting: to `CC(c1n[nH]c(=O)c2cc(F)c(F)cc12)N(C)C(=O)c1cc2c(F)cc(F)cc2[nH]1` (racemic) [Compound 60, N-(1-(6,7-difluoro-4-oxo-3,4-dihydrophthalazin-1-yl)ethyl)-4,6-difluoro-N-methyl-1H-indole-2-carboxamide] belongs 50 nM.
Consider `CCN(C(=O)c1cc2ccccc2[nH]1)C(C)c1n[nH]c(=O)c2cc(F)c(F)cc12` (racemic) [Compound 48, N-(1-(6,7-difluoro-4-oxo-3,4-dihydrophthalazin-1-yl)ethyl)-N-ethyl-1H-indole-2-carboxamide], for which the EC50 amounted to 60 nM.
The same measure, in the same setting: to `CC(c1n[nH]c(=O)c2cc(F)c(F)cc12)N(C)C(=O)Nc1ccc(F)c(C#N)c1` (racemic) [Compound 76, 3-(3-cyano-4-fluorophenyl)-1-(1-(6,7-difluoro-4-oxo-3,4-dihydrophthalazin-1-yl)ethyl)-1-methylurea] belongs 40 nM; to `CC(c1n[nH]c(=O)c2ccccc12)N(C)C(=O)Nc1ccc(F)c(Cl)c1` (racemic) [Compound 1, 3-(3-chloro-4-fluoro-phenyl)-1-methyl-1-[1-(4-oxo-3H-phthalazin-1-yl)ethyl]urea], 240 nM.
Still for that read-out and setting: to `CC(c1n[nH]c(=O)c2cc(F)c(F)cc12)N(C)C(=O)c1cccc(C(F)F)c1` (racemic) [Compound 71, N-(1-(6,7-difluoro-4-oxo-3,4-dihydrophthalazin-1-yl)ethyl)-3-(difluoromethyl)-N-methylbenzamide] belongs 220 nM.
For `C[C@@H](c1n[nH]c(=O)c2cc(F)c(F)cc12)N(C)C(=O)Nc1ccc(F)c(Cl)c1` [Compound 31, 3-(3-chloro-4-fluorophenyl)-1-(1-(6,7-difluoro-4-oxo-3,4-dihydrophthalazin-1-yl)ethyl)-1-methylurea], the EC50 was 1800 nM.
For the molecule `CC(c1n[nH]c(=O)c2cc(Cl)ccc12)N(C)C(=O)Nc1ccc(F)c(Cl)c1` (racemic) [Compound 12, 3-(3-chloro-4-fluorophenyl)-1-(1-(6-chloro-4-oxo-3,4-dihydrophthalazin-1-yl)ethyl)-1-methylurea], the EC50 was 260 nM.

Staying with this experiment, now noted: Hepatitis B virus, HepDE19, 168 h, read-out: DE-19bDNA EC50.
Consider `C[C@@H](c1nn(C)c(=O)c2cc(F)c(F)cc12)N(C)C(=O)Nc1ccc(F)cc1` [Compound 38, (S)(1-(6,7-difluoro-3-methyl-4-oxo-3,4-dihydrophthalazinyl)ethyl)-3-(4-fluorophenyl)methylurea], for which the EC50 came out at 8200 nM.
For `C[C@H](c1n[nH]c(=O)c2cc(F)c(F)cc12)N(C)C(=O)c1cc2c(F)c(F)ccc2[nH]1` [Compound 57, (R)-N-(1-(6,7-difluoro-4-oxo-3,4-dihydrophthalazin-1-yl)ethyl)-4,5-difluoro-N-methyl-1H-indole-2-carboxamide], the EC50 was 12 nM.
For `C[C@H](c1n[nH]c(=O)c2cc(F)c(F)cc12)N(C)C(=O)c1cc2c([nH]1)CCCC2` [Compound 58, (R)-N-(1-(6,7-difluoro-4-oxo-3,4-dihydrophthalazin-1-yl)ethyl)-N-methyl-4,5,6,7-tetrahydro-1H-indole-2-carboxamide], the EC50 came out at 120 nM.
